# How the values were obtained:
# TSP1 null mice = conditions: literature; cited from earlier work
# TGF-β = assay: Glomerular secretion of active TGF-β (NRK-bioassay of supernatants of isolated glomeruli) in anti-Thy1 rats; type: in vivo, rat
# Description: (§1) Experimental design. Experimental mesangial proliferative glomerulonephritis was induced using the monoclonal mouse anti-Thy1 antibody OX-7. Peptides were continuously infused intravenously (i.v.) via jugular vein using osmotic minipumps starting sixteen hours after disease induction. The effects of the hexapeptide AAWSHW (SEQ ID NO:22) (that interferes with the TSP1-mature TGF-β interaction) or the LSKL-peptide (SEQ ID NO:21) (that blocks the TSP1-LAP interaction) were compared to a control peptide (SLLK) in the anti-Thy1 model. Tissues from different time points (days three, five, eight) of this experiment were analyzed in regard to mesangiolysis, macrophage-influx, MC-proliferation, MC-activation, microaneurysm and matrix formation, GEN proliferation, TSP1, TGF-β1 and 2, as well as TGF-βRI and RII. Functional parameters such as blood pressure, proteinuria, and creatinine clearance were also determined. On day eight, glomerular secretion of active TGF-β was determined in individual animals by incubating isolated glomeruli for twenty-four hours in DMEM and measuring TGF-β activity in glomerular supernatants using the NRK-bioassay.
# (§2) Animal model Experimental mesangial proliferative glomerulonephritis (anti-Thy1 model) was induced in Sprague Dawley rats (180-200 g; Charles River, Sulzfeld, Germany) by a single injection of 1 mg/kg of the mouse monoclonal anti-Thy1 antibody OX-7 (European Collection of Animal Cell Culture, Salisbury, England). In this animal model, complete anti-Thy1 antibody binding occurs within an hour (Johnson et al. (1991) Am. J. Pathol. 138 (2), 313-21). To avoid potential interference of the LAP-peptides with anti-Thy1 antibody binding and subsequent mesangiolysis, the peptide treatment was started sixteen hours after disease induction, when binding of the anti-Thy1 antibody to the mesangium and subsequent mesangiolysis had already occurred. The peptides used in this study were synthesized, purified, and analyzed as described elsewhere (Crawford et al. (1998) Cell 93, 1159-1170).
# Renal biopsies as described previously (Hugo et al. (1997) J. Clin. Invest. 100, 786-794) were performed on days three and five, and the experiment was finished on day eight. To determine DNA incorporation into proliferating cells, each animal was injected intravenously with BrdU (50 mg/kg bw) ninety minutes before the second survival biopsy was taken on day five (peak of MC proliferation). Renal biopsies were fixed in methyl Carnoy's, 10% formalin and/or OCT and snap frozen. A twenty-four hour urine collection for measurement of protein and creatinine was done from day seven to eight, when maximal proteinuria occurs in this model (unpublished observation). Blood pressure measurements were done twice before and twice after disease induction. In renal biopsies, the frequency of glomerular microaneurysms, the number of infiltrating macrophages, the number of proliferating MC, the expression of the contractile protein α-sm actin as a marker of MC-activation, and the expression of TGF-β1, TGF-β2, TGF-βRI, TGF-βRII, TSP1, as well as of extracellular matrix proteins such as collagen I, collagen IV and fibronectin were determined. For TGF-β activity measurements in individual animals on day eight, glomeruli were isolated by differential sieving (Johnson et al. (1991) Am. J. Pathol. 138 (2), 313-21) and counted using five aliquots. Glomerular isolates were discarded if purity was less than 95%. 8000 glomeruli/ml were incubated in DMEM at 37° C. […]
# [1] = system: rats with anti-Thy1 disease; assay: Glomerular extracellular matrix formation (Masson's Trichrome, collagen I, collagen IV, fibronectin stains) in the anti-Thy1 model; type: in vivo, rat
# Description: as §1, §2
# (§3) Renal biopsies as described previously (Hugo et al. (1997) J. Clin. Invest. 100, 786-794) were performed on days three and five, and the experiment was finished on day eight. To determine DNA incorporation into proliferating cells, each animal was injected intravenously with BrdU (50 mg/kg bw) ninety minutes before the second survival biopsy was taken on day five (peak of MC proliferation). Renal biopsies were fixed in methyl Carnoy's, 10% formalin and/or OCT and snap frozen. A twenty-four hour urine collection for measurement of protein and creatinine was done from day seven to eight, when maximal proteinuria occurs in this model (unpublished observation). Blood pressure measurements were done twice before and twice after disease induction. In renal biopsies, the frequency of glomerular microaneurysms, the number of infiltrating macrophages, the number of proliferating MC, the expression of the contractile protein α-sm actin as a marker of MC-activation, and the expression of TGF-β1, TGF-β2, TGF-βRI, TGF-βRII, TSP1, as well as of extracellular matrix proteins such as collagen I, collagen IV and fibronectin were determined. For TGF-β activity measurements in individual animals on day eight, glomeruli were isolated by differential sieving (Johnson et al. (1991) Am. J. Pathol. 138 (2), 313-21) and counted using five aliquots. Glomerular isolates were discarded if purity was less than 95%. 8000 glomeruli/ml were incubated in DMEM at 37° C. After a twenty-four hour incubation period, glomerular supernatants were stored by −70° C. until TGF-β activity measurements were done.
# (§4) Peptide infusion. All peptides (at a concentration of 3.5 mg/ml) were continuously infused for seven days via a catheter in the right jugular vein using osmotic minipumps (Alzet Corp./Charles River, Sulzfeld, Germany). […]
# [2] = system: rats with anti-Thy1 disease; assay: Glomerular immunostaining score for TGF-β1, TGF-β2, TGF-βRI, TGF-βRII and TSP1 in the anti-Thy1 model; type: in vivo, rat
# Description: as §1, §2, §3, §4
# [3] = system: rats with anti-Thy1 disease; assay: Glomerular MC-proliferation, MC-activation and macrophage influx in the anti-Thy1 model; type: in vivo, rat
# Description: as §1, §2, §3, §4
# [4] = system: rats with anti-Thy1 disease; assay: Mesangiolysis, microaneurysm formation and GEN-proliferation in the anti-Thy1 model; type: in vivo, rat
# Description: as §1, §2, §3, §4
# [5] = system: rats with anti-Thy1 disease; assay: Functional parameters (proteinuria, creatinine clearance, blood urea nitrogen, systolic blood pressure) in the anti-Thy1 model; type: in vivo, rat
# Description: as §1, §2, §3, §4
# [6] = system: activation of TGF-β by TSP1; conditions: background, literature; cited from earlier work
substance,measurement,setting,value
"KRFK: TGF-β activating peptide, KRFK amino acid sequence of the TSP1 molecule (listed as Homo sapiens)",histological changes in TSP1 null mice,TSP1 null mice,reverted toward wild type
Leu-Ser-Lys-Leu (LSKL; listed as Homo sapiens),Active TGF-β (colonies > 62 um),"TGF-β; day 8 glomeruli, 24 h supernatant, NRK-bioassay, continuous i.v. peptide infusion",154 ± 50 colonies > 62 um
same,glomerular secretion of active TGF-β compared to control peptide (SLLK) treated rats,"TGF-β; day eight glomeruli, p<0.01",markedly reduced
same,Matrix Collagen 1 (score 0-4),[1]; day 3,0.1 ± 0.1 score 0-4
same,Matrix Collagen IV (score 0-4),[1]; day 3,1.0 ± 0.2 score 0-4
same,Matrix Fibronectin (score 0-4),[1]; day 3,1.2 ± 0.4 score 0-4
same,Matrix Trichrome (score 0-3),[1]; day 3,0.4 ± 0.2 score 0-3
same,Matrix Collagen 1 (score 0-4),[1]; day 5,0.7 ± 0.4 score 0-4
same,Matrix Collagen IV (score 0-4),[1]; day 5,1.9 ± 0.3 score 0-4
same,Matrix Fibronectin (score 0-4),[1]; day 5,1.9 ± 0.6 score 0-4
same,Matrix Trichrome (score 0-3),[1]; day 5,0.7 ± 0.2 score 0-3
same,Matrix Collagen 1 (score 0-4),[1]; day 8,0.8 ± 0.5 score 0-4
same,Matrix Collagen IV (score 0-4),[1]; day 8,1.2 ± 0.4 score 0-4
same,Matrix Fibronectin (score 0-4),[1]; day 8,0.9 ± 0.6 score 0-4
same,Matrix Trichrome (score 0-3),[1]; day 8,1.2 ± 0.3 score 0-3
same,extracellular matrix formation as determined by Trichrome staining,"[1]; day eight, in words",markedly suppressed
same,"glomerular accumulation of collagen I, collagen IV and fibronectin by immunohistochemistry","[1]; time course of anti-Thy1 disease, in words",reduced glomerular accumulation of all three extracellular matrix proteins
same,TGF-β1 (score 0-4),[2]; day 3,0.1 ± 0.1 score 0-4
same,TGF-β2 (score 0-4),[2]; day 3,0.2 ± 0.1 score 0-4
same,TGF-βRI (score 0-4),[2]; day 3,0.2 ± 0.2 score 0-4
same,TGF-βRII (score 0-4),[2]; day 3,0.2 ± 0.1 score 0-4
same,TSP I (score 0-4),[2]; day 3,0.3 ± 0.2 score 0-4
same,TGF-β1 (score 0-4),[2]; day 5,1.8 ± 0.6 score 0-4
same,TGF-β2 (score 0-4),[2]; day 5,1.2 ± 0.6 score 0-4
same,TGF-βRI (score 0-4),[2]; day 5,1.4 ± 0.3 score 0-4
same,TGF-βRII (score 0-4),[2]; day 5,1.3 ± 0.3 score 0-4
same,TSP I (score 0-4),[2]; day 5,1.4 ± 0.6 score 0-4
same,TGF-β1 (score 0-4),[2]; day 8,1.7 ± 0.6 score 0-4
same,TGF-β2 (score 0-4),[2]; day 8,0.6 ± 0.6 score 0-4
same,TGF-βRI (score 0-4),[2]; day 8,1.4 ± 0.4 score 0-4
same,TGF-βRII (score 0-4),[2]; day 8,0.9 ± 0.6 score 0-4
same,TSP I (score 0-4),[2]; day 8,0.5 ± 0.3 score 0-4
same,MC-activation α-sm actin (score 0-4),[3]; day 3,0.6 ± 0.3 score 0-4
same,MC-proliferation (OX-7 + /PCNA + cells/glomerulus),[3]; day 3,3.3 ± 0.6 cells/glomerulus
same,Macrophages (ED-1 + cells/glomerulus),[3]; day 3,4.3 ± 2.0 cells/glomerulus
same,MC-activation α-sm actin (score 0-4),[3]; day 5,2.5 ± 0.4 score 0-4
same,MC-proliferation (OX-7 + /BrdU + cells/glomerulus),[3]; day 5,3.9 ± 0.6 cells/glomerulus
same,MC-proliferation (OX-7 + /PCNA + cells/glomerulus),[3]; day 5,7.9 ± 1.0 cells/glomerulus
same,Macrophages (ED-1 + cells/glomerulus),[3]; day 5,1.0 ± 0.6 cells/glomerulus
same,MC-activation α-sm actin (score 0-4),[3]; day 8,2.4 ± 0.5 score 0-4
same,MC-proliferation (OX-7 + /PCNA + cells/glomerulus),[3]; day 8,4.6 ± 0.5 cells/glomerulus
same,Macrophages (ED-1 + cells/glomerulus),[3]; day 8,0.7 ± 0.5 cells/glomerulus
same,MC activation (de novo expression of α-sm-actin),[3]; in words,did not significantly alter
same,Glomerular Microaneurysm (in percent),[4]; day 3,16.7 ± 10.0%
same,Glomerular Microaneurysm (in percent),[4]; day 5,13.8 ± 19.9%
same,Glomerular Microaneurysm (in percent),[4]; day 8,2.2 ± 2.7%
same,Glomerular GEN-proliferation (double staining for RECA-1 and PCNA),[4]; day three,2.0±0.5
same,mesangiolysis scores,"[4]; day three, scale 0-IV",2.56±0.3
same,Proteinuria (mg/24 hours),[5]; day 8 (urine collection day seven to eight),24 ± 20 mg/24 hours
same,twenty-four hour proteinuria,[5]; days seven to eight,24±20 mg/twenty-four hours
same,Blood urea nitrogen,"[5]; rat, in vivo",33.2 ± 9.4 mg/dL
same,block of activation of TGF-β by TSP1,[6],able to block activation of TGF-β by TSP1
